The NIST ThermoML archive (doi:10.1021/je100765j)

Assay: xn = mol fraction of the nth substance listed
Details: 101 kPa, Liquid; for speed of sound: Sing-around technique in a fixed-path interferometer

CC(C)(C)Cl [2-chloro-2-methylpropane] + CC(C)OC(C)C
Details	mass density [kg/m3]	speed of sound [m/s]
283.15 K, x1 = 0.049	738.51	1064.9
283.15 K, x1 = 0.0996	743.477	1064.1
283.15 K, x1 = 0.1991	753.625	1062.7
283.15 K, x1 = 0.3212	766.738	1060.7
283.15 K, x1 = 0.4189	777.752	1059.1
283.15 K, x1 = 0.5148	789.053	1057.4
283.15 K, x1 = 0.6213	802.211	1055.4
283.15 K, x1 = 0.7152	814.386	1053.5
283.15 K, x1 = 0.8138	827.84	1051.4
283.15 K, x1 = 0.9079	841.342	1049.2
283.15 K, x1 = 0.9552	848.393	1048.1
288.15 K, x1 = 0.049	733.338	1042.5
288.15 K, x1 = 0.0996	738.271	1041.8
288.15 K, x1 = 0.1991	748.35	1040.4
288.15 K, x1 = 0.3212	761.373	1038.5
288.15 K, x1 = 0.4189	772.305	1037
288.15 K, x1 = 0.5148	783.527	1035.4
288.15 K, x1 = 0.6213	796.59	1033.5
288.15 K, x1 = 0.7152	808.683	1031.8
288.15 K, x1 = 0.8138	822.038	1029.8
288.15 K, x1 = 0.9079	835.444	1027.7
288.15 K, x1 = 0.9552	842.442	1026.6
293.15 K, x1 = 0.049	728.121	1020
293.15 K, x1 = 0.0996	733.024	1019.4
293.15 K, x1 = 0.1991	743.024	1018
293.15 K, x1 = 0.3212	755.959	1016.3
293.15 K, x1 = 0.4189	766.815	1014.9
293.15 K, x1 = 0.5148	777.959	1013.4
293.15 K, x1 = 0.6213	790.929	1011.6
293.15 K, x1 = 0.7152	802.935	1010
293.15 K, x1 = 0.8138	816.189	1008.1
293.15 K, x1 = 0.9079	829.491	1006.1
293.15 K, x1 = 0.9552	836.437	1005.1
298.15 K, x1 = 0.049	722.867	997.71
298.15 K, x1 = 0.0996	727.738	997.09
298.15 K, x1 = 0.1991	737.666	995.89
298.15 K, x1 = 0.3212	750.506	994.32
298.15 K, x1 = 0.4189	761.286	993.03
298.15 K, x1 = 0.5148	772.351	991.68
298.15 K, x1 = 0.6213	785.228	990.11
298.15 K, x1 = 0.7152	797.145	988.62
298.15 K, x1 = 0.8138	810.301	986.91
298.15 K, x1 = 0.9079	823.502	985.13
298.15 K, x1 = 0.9552	830.397	984.18
303.15 K, x1 = 0.049	717.578	975.46
303.15 K, x1 = 0.0996	722.411	974.84
303.15 K, x1 = 0.1991	732.264	973.65
303.15 K, x1 = 0.3212	745.015	972.13
303.15 K, x1 = 0.4189	755.716	970.88
303.15 K, x1 = 0.5148	766.702	969.59
303.15 K, x1 = 0.6213	779.48	968.1
303.15 K, x1 = 0.7152	791.311	966.67
303.15 K, x1 = 0.8138	804.371	965.04
303.15 K, x1 = 0.9079	817.469	963.34
303.15 K, x1 = 0.9552	824.312	962.38
308.15 K, x1 = 0.049	712.24	953.42
308.15 K, x1 = 0.0996	717.041	952.84
308.15 K, x1 = 0.1991	726.821	951.71
308.15 K, x1 = 0.3212	739.479	950.28
308.15 K, x1 = 0.4189	750.102	949.13
308.15 K, x1 = 0.5148	761.005	947.93
308.15 K, x1 = 0.6213	773.688	946.56
308.15 K, x1 = 0.7152	785.433	945.25
308.15 K, x1 = 0.8138	798.394	943.74
308.15 K, x1 = 0.9079	811.393	942.17
308.15 K, x1 = 0.9552	818.179	941.27
313.15 K, x1 = 0.049	706.86	931.51
313.15 K, x1 = 0.0996	711.627	930.96
313.15 K, x1 = 0.1991	721.331	929.87
313.15 K, x1 = 0.3212	733.893	928.52
313.15 K, x1 = 0.4189	744.44	927.44
313.15 K, x1 = 0.5148	755.257	926.35
313.15 K, x1 = 0.6213	767.848	925.1
313.15 K, x1 = 0.7152	779.502	923.88
313.15 K, x1 = 0.8138	792.364	922.47
313.15 K, x1 = 0.9079	805.264	921
313.15 K, x1 = 0.9552	811.999	920.15

CCC(C)Cl (stereo not drawn) [2-chlorobutane] + CC(C)OC(C)C
Details	mass density [kg/m3]	speed of sound [m/s]
283.15 K, x1 = 0.0519	740.159	1068.8
283.15 K, x1 = 0.0988	745.897	1071.7
283.15 K, x1 = 0.2006	758.792	1078
283.15 K, x1 = 0.3211	774.756	1085.4
283.15 K, x1 = 0.4201	788.575	1091.5
283.15 K, x1 = 0.532	804.971	1098.5
283.15 K, x1 = 0.6244	819.223	1104.3
283.15 K, x1 = 0.726	835.602	1110.7
283.15 K, x1 = 0.8163	850.907	1116.3
283.15 K, x1 = 0.8817	862.411	1120.4
283.15 K, x1 = 0.9634	877.39	1125.5
288.15 K, x1 = 0.0519	734.981	1046.5
288.15 K, x1 = 0.0988	740.712	1049.4
288.15 K, x1 = 0.2006	753.569	1055.8
288.15 K, x1 = 0.3211	769.483	1063.4
288.15 K, x1 = 0.4201	783.251	1069.7
288.15 K, x1 = 0.532	799.602	1076.9
288.15 K, x1 = 0.6244	813.814	1082.9
288.15 K, x1 = 0.726	830.144	1089.5
288.15 K, x1 = 0.8163	845.414	1095.4
288.15 K, x1 = 0.8817	856.901	1099.6
288.15 K, x1 = 0.9634	871.819	1104.9
293.15 K, x1 = 0.0519	729.792	1024
293.15 K, x1 = 0.0988	735.485	1027.1
293.15 K, x1 = 0.2006	748.303	1033.7
293.15 K, x1 = 0.3211	764.161	1041.4
293.15 K, x1 = 0.4201	777.889	1047.9
293.15 K, x1 = 0.532	794.197	1055.3
293.15 K, x1 = 0.6244	808.369	1061.5
293.15 K, x1 = 0.726	824.657	1068.3
293.15 K, x1 = 0.8163	839.877	1074.4
293.15 K, x1 = 0.8817	851.332	1078.7
293.15 K, x1 = 0.9634	866.214	1084.3
298.15 K, x1 = 0.0519	724.535	1001.8
298.15 K, x1 = 0.0988	730.22	1004.9
298.15 K, x1 = 0.2006	742.995	1011.5
298.15 K, x1 = 0.3211	758.802	1019.4
298.15 K, x1 = 0.4201	772.485	1026.1
298.15 K, x1 = 0.532	788.75	1033.8
298.15 K, x1 = 0.6244	802.882	1040.2
298.15 K, x1 = 0.726	819.123	1047.2
298.15 K, x1 = 0.8163	834.307	1053.5
298.15 K, x1 = 0.8817	845.724	1057.9
298.15 K, x1 = 0.9634	860.57	1063.7
303.15 K, x1 = 0.0519	719.276	979.57
303.15 K, x1 = 0.0988	724.919	982.73
303.15 K, x1 = 0.2006	737.649	989.5
303.15 K, x1 = 0.3211	753.411	997.66
303.15 K, x1 = 0.4201	767.06	1004.4
303.15 K, x1 = 0.532	783.263	1012.3
303.15 K, x1 = 0.6244	797.355	1018.8
303.15 K, x1 = 0.726	813.555	1026.1
303.15 K, x1 = 0.8163	828.698	1032.6
303.15 K, x1 = 0.8817	840.084	1037.2
303.15 K, x1 = 0.9634	854.895	1043.2
308.15 K, x1 = 0.0519	713.939	957.51
308.15 K, x1 = 0.0988	719.569	960.7
308.15 K, x1 = 0.2006	732.261	967.56
308.15 K, x1 = 0.3211	747.973	975.92
308.15 K, x1 = 0.4201	761.571	982.81
308.15 K, x1 = 0.532	777.737	990.84
308.15 K, x1 = 0.6244	791.784	997.54
308.15 K, x1 = 0.726	807.944	1005
308.15 K, x1 = 0.8163	823.046	1011.6
308.15 K, x1 = 0.8817	834.402	1016.4
308.15 K, x1 = 0.9634	849.179	1022.6
313.15 K, x1 = 0.0519	708.573	935.64
313.15 K, x1 = 0.0988	714.181	938.87
313.15 K, x1 = 0.2006	726.833	945.88
313.15 K, x1 = 0.3211	742.484	954.34
313.15 K, x1 = 0.4201	756.049	961.42
313.15 K, x1 = 0.532	772.166	969.67
313.15 K, x1 = 0.6244	786.18	976.57
313.15 K, x1 = 0.726	802.287	984.26
313.15 K, x1 = 0.8163	817.349	991.15
313.15 K, x1 = 0.8817	828.683	996.09
313.15 K, x1 = 0.9634	843.442	1002.5
